Legend:
[1] = biological target: T1, HDAC6 human recombinant (Homo sapiens, UniProt Q9UBN7); experiment: HDAC enzyme activity inhibition (in vitro), HDAC6 assay; format: biochemical; details: samples at 0.1, 1, 10, 100 and 1000 nM; 37° C. 60 minutes; fluorescence Ex 390, Em 460; read-out: HDAC6 IC50
T1 construct: purchased Calbiochem 382180
T1 sequence (Q9UBN7 1-1215): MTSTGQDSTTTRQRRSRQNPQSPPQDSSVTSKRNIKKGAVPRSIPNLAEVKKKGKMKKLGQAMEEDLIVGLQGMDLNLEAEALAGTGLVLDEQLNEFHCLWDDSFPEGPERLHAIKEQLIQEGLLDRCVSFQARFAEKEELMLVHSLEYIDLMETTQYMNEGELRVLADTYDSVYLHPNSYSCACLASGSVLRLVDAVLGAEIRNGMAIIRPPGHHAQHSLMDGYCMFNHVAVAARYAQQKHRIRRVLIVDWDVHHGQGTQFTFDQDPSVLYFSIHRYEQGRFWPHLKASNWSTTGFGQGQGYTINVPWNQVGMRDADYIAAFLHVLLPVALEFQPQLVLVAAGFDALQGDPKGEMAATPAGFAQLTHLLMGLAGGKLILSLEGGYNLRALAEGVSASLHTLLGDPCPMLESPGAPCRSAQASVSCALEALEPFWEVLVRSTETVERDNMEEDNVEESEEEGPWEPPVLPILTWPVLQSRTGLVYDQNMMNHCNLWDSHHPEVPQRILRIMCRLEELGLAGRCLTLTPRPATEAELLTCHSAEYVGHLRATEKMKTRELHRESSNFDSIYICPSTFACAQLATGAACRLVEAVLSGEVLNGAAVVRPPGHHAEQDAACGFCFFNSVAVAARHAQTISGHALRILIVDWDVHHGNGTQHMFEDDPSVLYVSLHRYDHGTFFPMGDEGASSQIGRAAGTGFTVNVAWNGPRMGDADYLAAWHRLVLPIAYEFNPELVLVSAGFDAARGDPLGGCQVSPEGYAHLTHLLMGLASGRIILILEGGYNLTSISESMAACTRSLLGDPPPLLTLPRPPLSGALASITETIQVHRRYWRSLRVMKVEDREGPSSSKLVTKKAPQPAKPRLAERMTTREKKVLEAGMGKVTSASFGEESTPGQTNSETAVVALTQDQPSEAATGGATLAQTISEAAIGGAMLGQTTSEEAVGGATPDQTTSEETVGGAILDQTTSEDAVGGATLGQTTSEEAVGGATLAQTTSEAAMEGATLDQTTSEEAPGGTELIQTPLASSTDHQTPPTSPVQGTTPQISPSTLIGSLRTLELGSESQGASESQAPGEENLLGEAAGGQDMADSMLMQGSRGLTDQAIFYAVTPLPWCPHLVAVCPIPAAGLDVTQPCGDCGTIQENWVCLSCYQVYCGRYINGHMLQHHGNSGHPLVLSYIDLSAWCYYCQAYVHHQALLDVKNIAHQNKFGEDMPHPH
Summary of the method: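 HDAC6 human recombinant enzyme with fluorimetric substrate; […]. Reaction 60 min at 37° C, then developer 30 min at 37° C; fluorescence read at Ex 390/Em 460.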

[2] = biological target: T2, HDAC1 (Homo sapiens, UniProt Q13547); experiment: HDAC enzyme activity inhibition (in vitro), HDAC1 Fluorimetric Drug Discovery Assay Kit; format: biochemical; details: samples at 100, 1000 and 10000 nM; 37° C. 60 minutes; fluorescence Ex 390, Em 460; read-out: HDAC1 IC50
T2 construct: purchased Enzolifesciences BML-AK511
T2 sequence (Q13547 whole entry): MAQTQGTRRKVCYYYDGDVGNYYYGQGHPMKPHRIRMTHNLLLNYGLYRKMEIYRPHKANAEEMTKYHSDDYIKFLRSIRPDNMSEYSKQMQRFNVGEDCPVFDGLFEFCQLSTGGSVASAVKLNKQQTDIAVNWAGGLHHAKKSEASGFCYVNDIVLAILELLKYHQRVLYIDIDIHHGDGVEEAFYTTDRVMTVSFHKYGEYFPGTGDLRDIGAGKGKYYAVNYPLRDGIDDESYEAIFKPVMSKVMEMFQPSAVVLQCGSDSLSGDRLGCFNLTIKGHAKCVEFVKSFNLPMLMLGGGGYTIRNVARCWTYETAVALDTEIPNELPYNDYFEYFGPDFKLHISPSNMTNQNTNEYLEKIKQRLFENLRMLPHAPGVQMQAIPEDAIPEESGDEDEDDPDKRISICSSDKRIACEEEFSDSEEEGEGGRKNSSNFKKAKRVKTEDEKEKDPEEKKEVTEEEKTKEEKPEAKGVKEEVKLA
Summary of the method: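 Compounds at 100, 1000, 10000 nM (HDAC1) or 0.1, 1, 10, 100, 1000 nM (HDAC6); 37° C, 60 min; developer, 37° C, 30 min; fluorescence Ex 390/Em 460.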

Row | SMILES | IC50 [1] [nM] | IC50 [2] [nM]
1 | O=c1n(Cc2ccc(-c3nnc(C(F)(F)F)o3)cn2)c2ccccc2n1C1CC2(COC2)C1 [Compound 109, 1-(2-oxaspiro[3.3]heptane-6-yl)-3-((5-(5-(trifluoromethyl)-1,3,4-oxadiazole-2-yl)pyridine-2-yl)methyl)-1,3-dihydro-2H-benzo[d]imidazole-2-one] | 623 | > 10000
2 | O=c1oc2cc(-c3ccc(CN4CCOCC4)nc3)c(F)cc2n1Cc1ccc(-c2nnc(C(F)F)o2)cn1 [Compound 332, 3-((5-(5-(difluoromethyl)-1,3,4-oxadiazole-2-yl)pyridine-2-yl)methyl)-5-fluoro-6-(6-(morpholinomethyl)pyridine-3-yl)benzo[d]oxazole-2(3H)-one] | 43 | > 10000
3 | CCN1CCC(n2c(=O)n(Cc3ccc(-c4nnc(C(F)F)o4)cn3)c3cc(F)ccc32)CC1 [Compound 50, 3-((5-(5-(difluoromethyl)-1,3,4-oxadiazole-2-yl)pyridine-2-yl)methyl)-1-(1-ethylpiperidine-4-yl)-5-fluoro-1,3-dihydro-2H-benzo[d]imidazole-2-one] | 39 | > 10000
4 | O=c1n(CCN2CCOCC2)c2cc(-c3cccnc3)c(F)cc2n1Cc1ccc(-c2nnc(C(F)F)o2)cn1 [Compound 267, 1-((5-(5-(difluoromethyl)-1,3,4-oxadiazole-2-yl)pyridine-2-yl)methyl)-6-fluoro-3-(2-morpholinoethyl)-5-(pyridine-3-yl)-1,3-dihydro-2H-benzo[d]imidazole-2-one] | 42 | > 10000
5 | Cn1c(=O)n(Cc2ccc(-c3nnc(C(F)F)o3)cn2)c2cc(F)c(N3CCN(Cc4cn[nH]c4)CC3)cc21 [Compound 285, 5-(4-((1H-pyrazole-4-yl)methyl)piperazine-1-yl)-1-((5-(5-(difluoromethyl)-1,3,4-oxadiazole-2-yl)pyridine-2-yl)methyl)-6-fluoro-3-methyl-1,3-dihydro-2H-benzo[d]imidazole-2-one] | 33 | > 10000
6 | O=c1oc2cc(C3CCNCC3)ccc2n1Cc1ccc(-c2nnc(C(F)F)o2)cn1 [Compound 308, 3-((5-(5-(difluoromethyl)-1,3,4-oxadiazole-2-yl)pyridine-2-yl)methyl)-6-(piperidine-4-yl)benzo[d]oxazole-2(3H)-one] | 456 | > 10000
7 | CN1CCC(Cn2c(=O)n(Cc3ccc(-c4nnc(C(F)F)o4)cn3)c3ccccc32)CC1 [Compound 10, 1-((5-(5-(difluoromethyl)-1,3,4-oxadiazole-2-yl)pyridine-2-yl)methyl)-3-((1-methylpiperidine-4-yl)methyl)-1,3-dihydro-2H-benzo[d]imidazole-2-one] | 222 | > 10000
8 | CN1CCC(n2c(=O)n(Cc3ccc(-c4nnc(C(F)F)o4)cc3F)c3cc(Br)ccc32)CC1 [Compound 119, 5-bromo-3-(4-(5-(difluoromethyl)-1,3,4-oxadiazole-2-yl)-2-fluorobenzyl)-1-(1-methylpiperidine-4-yl)-1,3-dihydro-2H-benzo[d]imidazole-2-one] | 80 | > 10000
9 | CN1CCC(n2c(=O)n(Cc3ccc(-c4nnc(C(F)F)o4)cc3F)c3cc(C(F)(F)F)ccc32)CC1 [Compound 91] | 58 | > 10000
10 | O=c1sc2cc(-c3cnn(C4CCN(CC(F)(F)F)CC4)c3)ccc2n1Cc1ccc(-c2nnc(C(F)F)o2)cn1 [Compound 356, 3-((5-(5-(difluoromethyl)-1,3,4-oxadiazole-2-yl)pyridine-2-yl)methyl)-6-(1-(1-(2,2,2-trifluoroethyl)piperidine-4-yl)-1H-pyrazole-4-yl)benzo[d]thiazole-2(3H)-one] | 84 | > 10000
11 | O=c1oc2cc(-c3ccncc3)c(F)cc2n1Cc1ccc(-c2nnc(C(F)F)o2)cn1 [Compound 278, 3-((5-(5-(difluoromethyl)-1,3,4-oxadiazole-2-yl)pyridine-2-yl)methyl)-5-fluoro-6-(pyridine-4-yl)benzo[d]oxazole-2(3H)-one] | 17 | > 10000
12 | O=c1n(Cc2ccc(-c3nnc(C(F)F)o3)cc2F)c2cc(F)ccc2n1C1CCN(C2CCSCC2)CC1 [Compound 73, 3-(4-(5-(difluoromethyl)-1,3,4-oxadiazole-2-yl)-2-fluorobenzyl)-5-fluoro-1-(1-(tetrahydro-2H-thiopyran-4-yl)piperidine-4-yl)-1,3-dihydro-2H-benzo[d]imidazole-2-one] | 80 | > 10000
13 | CN1CCC(n2c(=O)n(Cc3ccc(-c4nnc(C(F)F)o4)cn3)c3cc(F)c(F)cc32)CC1 [Compound 83, 1-((5-(5-(difluoromethyl)-1,3,4-oxadiazole-2-yl)pyridine-2-yl)methyl)-5,6-difluoro-3-(1-methylpiperidine-4-yl)-1,3-dihydro-2H-benzo[d]imidazole-2-one] | 49 | > 10000
14 | CC(=O)N1CCC(n2c(=O)n(Cc3ccc(-c4nnc(C(F)F)o4)cn3)c3ncccc32)CC1 [Compound 184, 1-(1-acetylpiperidine-4-yl)-3-((5-(5-(difluoromethyl)-1,3,4-oxadiazole-2-yl)pyridine-2-yl)methyl)-1,3-dihydro-2H-imidazo[4,5-b]pyridine-2-one] | 137 | > 10000
15 | O=c1n(Cc2ccc(-c3nnc(C(F)F)o3)cn2)c2cc(Cl)ccc2n1C1CCN(C2COC2)CC1 [Compound 271, 5-chloro-3-((5-(5-(difluoromethyl)-1,3,4-oxadiazole-2-yl)pyridine-2-yl)methyl)-1-(1-(oxetan-3-yl)piperidine-4-yl)-1,3-dihydro-2H-benzo[d]imidazole-2-one] | 27 | > 10000
16 | CN1CCC(n2c(=O)n(Cc3ccc(-c4nnc(C(F)F)o4)cc3F)c3cc(Cl)c(Cl)cc32)CC1 [Compound 87, 5,6-dichloro-1-(4-(5-(difluoromethyl)-1,3,4-oxadiazole-2-yl)-2-fluorobenzyl)-3-(1-methylpiperidine-4-yl)-1,3-dihydro-2H-benzo[d]imidazole-2-one] | 63 | > 10000
17 | CCN1CCN(c2ccc(-c3cc4oc(=O)n(Cc5ccc(-c6nnc(C(F)F)o6)cn5)c4cc3F)cn2)CC1 [Compound 347, 3-((5-(5-(difluoromethyl)-1,3,4-oxadiazole-2-yl)pyridine-2-yl)methyl)-6-(6-(4-ethylpiperazine-1-yl)pyridine-3-yl)-5-fluorobenzo[d]oxazole-2(3H)-one] | 62 | > 10000
18 | CN1CCC(n2c(=O)n(Cc3ccc(-c4nnc(C(F)F)o4)cc3)c3ccc(Cl)cc32)CC1 [Compound 99, 5-chloro-1-(4-(5-(difluoromethyl)-1,3,4-oxadiazole-2-yl)benzyl)-3-(1-methylpiperidine-4-yl)-1,3-dihydro-2H-benzo[d]imidazole-2-one] | 37 | > 10000
19 | O=c1n(Cc2ccc(-c3nnc(C(F)F)o3)cc2F)c2cc(Cl)c(Cl)cc2n1C1CCN(C2COC2)CC1 [Compound 88, 5,6-dichloro-1-(4-(5-(difluoromethyl)-1,3,4-oxadiazole-2-yl)-2-fluorobenzyl)-3-(1-(oxetan-3-yl)piperidine-4-yl)-1,3-dihydro-2H-benzo[d]imidazole-2-one] | 38 | > 10000
20 | O=c1n(Cc2ccc(-c3nnc(C(F)F)o3)cn2)c2cc(F)ccc2n1C1CN(C2COC2)C1 [Compound 302, 3-((5-(5-(difluoromethyl)-1,3,4-oxadiazole-2-yl)pyridine-2-yl)methyl)-5-fluoro-1-(1-(oxetan-3-yl)azetidine-3-yl)-1,3-dihydro-2H-benzo[d]imidazole-2-one] | 38 | > 10000

From patent publication US20230092890A1, “1, 3, 4-Oxadiazole derivative compounds as histone deacetylase 6 inhibitor, and the pharmaceutical composition comprising the same” (Chong Kun Dang Pharmaceutical Corp., priority 2019, published 2023)
